Legend:
in vitro [1] = conditions: human
Protocol: The stability of compounds in cell extracts was examined as follows:
Cell lysis buffer was added to cell pellets and the cells frozen and thawed 3× using dry ice. The lysis buffer (LB) was composed of the following: 50 mM Tris-HCl, pH 7.4 (100 μl/ml 10× stock), 20% glycerol (200 μl/ml), and 0.5% Triton X-100 (5 μl/ml). 100 μl of LB was added to each microfuge tube containing 10^7 frozen CEM cells. After the cells were lysed the extracts were centrifuged at high speed in a microcentrifuge for 5 minutes and the clarified cell extract transferred to a new tube. The cell stability reaction mixtures contained concentrations of buffer, magnesium, nucleotide, and cell extract as shown below:
The reaction mixtures were incubated at 37° C. At each time point, including at time zero, 12.5 μl aliquots were added to 40 μl ice-cold methanol. […] The samples were incubated in methanol for at least 60 minutes and typically overnight at −20° C. prior to further processing. The cell extracts were centrifuged at high speed in refrigerated microcentrifuge for 20 minutes and the supernatant transferred to a new tube. The extract was then dried under vacuum in a LabConco Centrivap Concentrator. The samples were then resuspended in 40 or 50 μl dH2O, filtered to remove any particulate, and analyzed by reverse phase HPLC.
The reverse phase HPLC columns used for the analysis were either a Phenomenex C18 Aqua column (2×100 mm) or the Phenomenex C18 Aqua column (3×150 mm) used with the appropriate guard column. The HPLC flow rate was either 0.2 ml/min (for the 2×100 mm column) or 0.5 ml/min (for the 3×150 mm column) with the following buffer system: 5 mM tetrabutylammonium acetate, 50 mM ammonium phosphate, and an acetonitrile gradient running from 5% up to as high as 60%. The amount of remaining parent compound at each time point was used to determine the half-life of the compound. […] Unmodified nucleoside triphosphates were used as positive controls.

Escherichia coli = assay: Antimicrobial assay, minimal inhibitory concentration; type: cell-based
Protocol: (§1) To examine the antimicrobial potential of the nucleotide mimics of the present invention an assay was employed that allowed the screening of a large number of compounds simultaneously. The type of bacteria chosen to screen the compounds are organisms associated with human disease and represent major groups of bacteria based on their structure and metabolism. Bacterial cultures of Escherichia coli and Staphylococcus aureus were incubated overnight at 37° C. in a shaker incubator. A lawn of each overnight bacterial culture was made by plating […] of bacteria on agar plates containing Nutrient Broth. Immediately after plating, sterile blank paper discs were put on top of the lawn and a compound was applied to each blank paper disc. Plates were then incubated overnight and examined for the inhibition of bacterial growth the following day. […] The plates were incubated overnight at 37° C. and then examined spectrophotometrically at 600 nm to determine the minimum concentration of each compound that inhibited replication of bacteria as determined by no increase in absorbance at 600 nm.

Staphylococcus aureus = assay: as above; type: cell-based
Protocol: as §1

CEM-SS cells = assay: Compound toxicity in CEM-SS cells (MTS staining); type: cell-based; conditions: read-out: CEM-SS TC50
Protocol: (§2) ollowing paper: Structure-Activity and Cross-Resistance unodeficiency Virus Type 1-Specific ckheit, Jr. et al., Antimicrobial Agents and s were evaluated in CEM-SS cell cultures V-1RF at an MOI of approximately 0.01. At he soluble tetrazolium-based dye MTS viability and quantify compound toxicity of metabolically active cells to yield a soluble analysis of cell viability and compound
(§3) At assay termination, the assay plates were stained with the soluble tetrazolium-based dye MTS (CellTiter Reagent Promega) to determine cell viability and quantify compound toxicity. MTS is metabolized by the mitochondrial enzymes of metabolically active cells to yield a soluble formazan product, allowing the rapid quantitative analysis of cell viability and compound cytotoxicity. […] At termination of the assay, 20 μL of MTS reagent was added per well. The microtiter plates were then incubated 4-6 hrs at 37° C. for the HIV cytoprotection assay; the incubation intervals were chosen based on empirically determined times for optimal dye reduction. Adhesive plate sealers were used in place of the lids, the sealed plate was inverted several times to mix the soluble formazan product and the plate was read spectrophotometrically at 490 nm with a Molecular Devices Vmax plate reader.

HIV-1RF = assay: Anti-HIV-1 cytoprotection assay in CEM-SS cells; type: cell-based; conditions: CEM-SS cells infected with HIV-1RF, MOI approximately 0.01, 6 days, MTS; read-out: CEM-SS IC50 (Anti-HIV Screening)
Protocol: as §2
Efficacy Evaluation in CEM-SS Cells Anti-HIV-1 Cytoprotection Assay
Cell Preparation—CEM-SS cells were passaged in T-75 flasks prior to use in the antiviral assay. On the day preceding the assay, the cells were split 1:2 to assure they were in an exponential growth phase at the time of infection. Total cell and viability quantification was performed using a hemacytometer and trypan blue exclusion. Cell viability was greater than 95% for the cells to be utilized in the assay. The cells were resuspended at 5×10^4 cells/ml in tissue culture medium and added to the drug-containing microtiter plates in a volume of 50 μl.
Virus Preparation—The virus used for these tests was the lymphocytropic virus strain HIV-1RF. This virus was obtained from the NIH AIDS Research and Reference Reagent Program and was grown in CEM-SS cells for the production of stock virus pools. For each assay, a pre-titered aliquot of virus was removed from the freezer (−80° C.) and allowed to thaw slowly to room temperature in a biological safety cabinet. The virus was resuspended and diluted into tissue culture medium such that the amount of virus added to each well in a volume of 50 μl was the amount determined to give between 85 to 95% cell killing at 6 days post-infection.
as §3

in vitro [2] = conditions: bovine, serum
Protocol: Typically the total volume used for the experiment was 500 μl. The final concentrations of the reaction components were as follows:
The reacton mixtures were made up and incubated at 37° C. At appropriate times aliquots of 25 μl were removed and added to 65 μl ice-cold methanol. These solutions were our at −20° C. and typically overnight. After incubation samples were inutes at high speed in a microcentrifuge. The supernatant was nd the extract was dried under vacuum in a LabConco Centrivap Concentrator. The dried extracts were resuspended in dH2O and filtered to remove particulate before analysis on reverse phase HPLC.
The reverse phase HPLC columns used for the analysis were either a Phenomenex C18 Aqua column (2×100 mm) or the Phenomenex C18 Aqua column (3×150 mm) used with the appropriate guard column. The HPLC was run at 0.2 ml/min (for the 2×100 mm column) or at 0.5 ml/min (for the 3×150 mm column) with the following buffer system: 5 mM tetrabutylammonium acetate, 50 mM ammonium phosphate, and an acetonitrile gradient running from 5% up to as high as 60%. The amount of remaining parent compound at each time point was used to determine the half-life of the compound. […] Unmodified nucleoside triphosphates were used as positive controls.

CEM cells = assay: Cell uptake procedure (intracellular nucleotide levels by HPLC); type: cell-based, Human; conditions: 24 hour incubation, limit of detection about 5 pmol/10^6 cells
Protocol: CEM cells were resuspended in RPMI at 1×10^7 cells/mL. The appropriate amount of each compound was added to well and then 0.5 ml of the cells was aliquoted into the appropriate number of wells of a 24-well plate and incubated the cells at 37° C. Cells were harvested after 24 hours of incubation. To harvest cells they were transferred to a microfuge tube and spun for one minute at high speed. The samples were washed in PBS containing 1 mg/ml BSA and re-centrifuged. The PBS was then aspirated and 200 μL of ice-cold 60% methanol was added to extract the nucleotides. The extracts were incubated overnight at −20° C. The next day the samples were spun at high speed in a microfuge for 20 minutes and the supernatant transferred to clean tubes and dried in the speed vac. After drying the samples were resuspended in 50 μl, filtered, and the samples then directly injected onto the HPLC. The nucleotides were analyzed using reverse phase HPLC with ion-pairing agents for separation of the nucleotides. The procedure was adapted from the following paper: Furman, et al., Proc. Natl. Acad. Sci. USA 1986, 83, 8333-8337.
The limit of detection was estimated to be 5 pmol/10^6 cells.

[3] = molecular target: purified bovine brain tubulin; assay: Assay for inhibition of microtubule (tubulin) polymerization; type: biochemical; conditions: 50 μM GTP, 37° C.; read-out: Ki, Inhibition of Tubulin Polymerization by Nucleotide Mimics
Protocol: The assays employed to measure the polymerization and stability of tubulin microtubule protein are described below. The effectiveness of the compounds of the present invention as modulators of tubulin microtubule protein dynamics was measured in the following assays.
This assay was used to measure the ability of the nucleotide mimics of the present invention to inhibit the polymerization of tubulin subunits and subsequent assembly of microtubule protein. This assay is a modification of a published procedure (Xu et al., “Interaction of Tubulin with Guanosine 5′-O-(1-Thiotriphosphate) Diastereoisomers: Specificity of the α-Phosphate Binding Region”, Biochemistry 1994, 33, 11884-90).
The compounds were tested at various concentrations up to 500 μM final concentration. Polymerization assays were performed in 96-well microplates (Costar), in assay buffer containing GTP and tubulin. The nucleotide mimics of the present invention were diluted in buffer and pipetted into the plate wells. Samples were kept on ice until the reactions were initiated by moving the plates into a 37° C. incubator. The polymerization reaction was allowed to proceed at 37° C. for 30 minutes, monitored at 340 nm using a microplate spectrophotometer with a temperature-controlled incubator (Molecular Devices, Sunnyvale, Calif.). Initial velocity data (mA min^−1) was collected and fit to the equations below.
The percentage of inhibition was calculated according to the following equation:
% Inhibition=[1−(mA min^−1 in test reaction−mA min^−1 in blank)/(mA min^−1 in control reaction−mA min^−1 in blank)]×100.
Each inhibitor was titrated over an appropriate range of concentrations, and inhibition constants were determined using the following equations:
v=Vm[S]/(Km(1+[I]/Ki)+[S])

[4] = molecular target: HIV reverse transcriptase (RT) (Human immunodeficiency virus type 1 group M subtype B, UniProt P04585); conditions: assays using homopolymer templates; background statement; cited from earlier work
[5] = overnight at 37° C., tested 0-200 μg/ml, NA = Not active
[6] = value in brackets beside the μg/ml value
[7] = incubation concentration 100 μM

Q: With “3′-Azido-3′-deoxythymidine 5′-α-P-borano-β,γ-difluoromethylene-γ-O-palmityltriphosphate [Compound 41]” as the molecule, how does the “Half-Life, Cell Extract Half-Lives of AZT 5'-α-P-borano-β,γ-(difluoromethylene) triphosphate Prodrugs” value (in vitro [1]) read?
A: >48 h

Q: And the “E. coli MIC” value (Escherichia coli; [5])?
A: 25 to 50 µg/mL

Q: What about the “E. coli MIC” value (Escherichia coli; [6]) of the same molecule?
A: (33-66) uM

Q: And the “S. aureus MIC” value (Staphylococcus aureus; [5])?
A: 5 to 10 µg/mL

Q: What about the “S. aureus MIC” value (Staphylococcus aureus; [6]) of the same molecule?
A: (6.5-13) μM

Q: What about the CC50 (CEM-SS cells) of the same molecule?
A: 12 µM

Q: What about the IC50 (HIV-1RF) of the same molecule?
A: 1.41 µM

Q: What does the source list for “3′-Azido-3′-deoxythymidine 5′-α-P-borano-γ-O-(S-pivaloyl-2-thioethyl)-β,γ-(difluoromethylene)triphosphate [Compound 70]”?
A: Half-Life, Serum Half-Lives of AZT Triphosphate Mimic Prodrugs (in vitro [2]): >48 h; Half-Life, Cell Extract Half-Lives of AZT 5'-α-P-borano-β,γ-(difluoromethylene) triphosphate Prodrugs (in vitro [1]): 15 h; E. coli MIC (Escherichia coli; [5]): 6 µg/mL; E. coli MIC (Escherichia coli; [6]): (8.8) uM; Intracellular levels of 27 (CEM cells; incubation concentration 25 μM): 10.5 pmol/10^6 cells; Intracellular levels of 27 (CEM cells; incubation concentration 50 μM): 15.6 pmol/10^6 cells; Intracellular levels of 27 (CEM cells; [7]): 19.7 pmol/10^6 cells; CC50 (CEM-SS cells): > 200 µM; IC50 (HIV-1RF): 0.95 µM

Q: For `Nc1ccn([C@@H]2O[C@H](COP(=O)(O)OP(=O)(O)O)[C@@H](O)C2=CF)c(=O)n1` [2′-Deoxy-2′-fluoromethylenecytidine 5′-diphosphate], which Ki [3] is on record?
A: 19.4 µM

Q: For `BP(=O)(OC[C@@H]1O[C@H](n2cc(C)c(=O)[nH]c2=O)C[C@H]1N=[N+]=[N-])OP(=O)(O)OP(=O)(O)O` (stereo partly drawn) [AZT 5′-α-P-boranotriphosphate], which “Ki values, inhibition of HIV reverse transcriptase (RT)” value [4] is on record?
A: low nM range

Q: Which results are given for `BP(=O)(OC[C@H]1O[C@@H](n2cc(C)c(=O)[nH]c2=O)C[C@H]1N=[N+]=[N-])OP(=O)(O)C(F)(F)P(=O)(O)OCOC(=O)C(C)(C)C` (stereo partly drawn) [Compound 69, 3′-Azido-3′-deoxythymidine 5′-α-P-borano-γ-O-(pivaloyloxymethyl)-β,γ-(difluoromethylene)triphosphate]?
A: Half-Life, Serum Half-Lives of AZT Triphosphate Mimic Prodrugs (in vitro [2]): >48 h; Half-Life, Cell Extract Half-Lives of AZT 5'-α-P-borano-β,γ-(difluoromethylene) triphosphate Prodrugs (in vitro [1]): 8 h; E. coli MIC (Escherichia coli; [5]): 0.75 µg/mL; E. coli MIC (Escherichia coli; [6]): (1) uM; Intracellular levels of 27 (CEM cells; incubation concentration 25 μM): 33.1 pmol/10^6 cells; Intracellular levels of 27 (CEM cells; incubation concentration 50 μM): 51.1 pmol/10^6 cells; Intracellular levels of 27 (CEM cells; [7]): 70.8 pmol/10^6 cells; CC50 (CEM-SS cells): 45.9 µM; IC50 (HIV-1RF): 1.13 µM

Q: With `Nc1ccn([C@@H]2O[C@H](COP(=O)(O)CCP(=O)(O)O)[C@@H](O)C2(F)F)c(=O)n1` [Compound 81, 2′-Deoxy-2′,2′-difluorocytidine 5′-ethylenediphosphonate] as the molecule, how does the Ki [3] read?
A: 15.7 µM

Q: For `Nc1nc2c(ncn2[C@@H]2O[C@H](COP(=O)(O)OP(=O)(O)O)[C@@H](O)[C@H]2O)c(=O)[nH]1` [Guanosine 5′-diphosphate], which Ki [3] is on record?
A: 15.3 µM

Q: Which Ki [3] does the source give for `Nc1nc2c(ncn2[C@@H]2O[C@H](COP(=O)(O)NP(=O)(O)O)[C@@H](O)[C@H]2O)c(=O)[nH]1` [Guanosine 5′-imidodiphosphate] here?
A: 5.7 µM

Q: With D4T 5′-α-P-boranotriphosphate as the molecule, how does the “Ki values, inhibition of HIV reverse transcriptase (RT)” value [4] read?
A: low nM range

— patent US20040059104A1, “Nucleotide mimics and their prodrugs” (priority 2002, published 2004)
